According to patent US10344004B2, “Inhibitor of the mutated isocitrate dehydrogenase IDH1 R132H” (Bayer Pharma Aktiengesellschaft, priority 2015, dated 2019):

Test: Relative oral bioavailability (FRel experiment) in Wistar rats
Type: in vivo
Protocol: The relative bioavailability was determined by studies in Wistar rats.
Compound A was firstly administered orally in the form of a solution. For this purpose, the active ingredient was dissolved in a mixture of 80% polyethylene glycol having an average molecular weight of 400 (PEG400) and 20% water. The active ingredient solution is the reference point for determining the relative bioavailability (formulation A1).
Compound A was also administered orally in the form of a tylose suspension (formulation A2).
Compound B was likewise administered orally in the form of a tylose suspension (formulation B).
To prepare a 0.5% aqueous tylose suspension (w/v), tylose was stirred and swelled for about 12 hours in pure water, whereupon a viscous mixture was formed. Compound A and compound B were each ground into the viscous mixture, whereupon the corresponding tylose suspensions were formed (formulation A2 and formulation B).
FIGS. 1a, 1b and 1c show the plasma concentrations of the active ingredient 3-(2-{[4-(trifluoromethoxy)phenyl]amino}-1-[(1R,5R)-3,3,5-trimethylcyclohexyl]-1H-benzimidazol-5-yl)propanoic acid (active ingredient API) after oral administration of compound A in the form of a solution (formulation A1, FIG. 1a), after oral administration of compound A in the form of a suspension (formulation A2, FIG. 1b) and after oral administration of compound B in the form of a suspension (formulation B, FIG. 1c).
For formulation A1, 5 mL/kg body weight were administered. This corresponded to an amount of active ingredient API of 10 mg/kg.
For formulation A2, 5 mL/kg body weight were administered. This corresponded to an amount of active ingredient API of 10 mg/kg.
For formulation B, 2 mL/kg body weight were administered. […]
Plasma concentrations were determined by collecting about 0.4 mL of blood in each case via an indwelling venous catheter. […] The plasma samples were analyzed by LC/MS/MS with respect to the active ingredient 3-(2-{[4-(trifluoromethoxy)phenyl]amino}-1-[(1R,5R)-3,3,5-trimethylcyclohexyl]-1H-benzimidazol-5-yl)propanoic acid.

Row | bioavailability (rat, plasma, tylose suspension (formulation A2), 10 mg/kg API, relative to PEG400/water solution (formulation A1)) [%] | Compound | bioavailability in the FRel experiment (tylose suspension (formulation B), 10.6 mg/kg API, relative to PEG400/water solution of compound A (formulation A1)) [%] | bioavailability compared with the pure free acid (tylose suspensions, comparison in words)
1 | 25 | C[C@H]1C[C@@H](n2c(Nc3ccc(OC(F)(F)F)cc3)nc3cc(CCC(=O)O)ccc32)CC(C)(C)C1 [Compound A, 3-(2-{[4-(trifluoromethoxy)phenyl]amino}-1-[(1R,5R)-3,3,5-trimethylcyclohexyl]-1H-benzimidazol-5-yl)propanoic acid] | – | –
2 | – | (2E)-but-2-enedioic acid-3-(2-{[4-(trifluoromethoxy)phenyl]amino}-1-[(1R,5R)-3,3,5-trimethylcyclohexyl]-1H-benzimidazol-5-yl)propanoic acid (1:4) [Compound B] | 110 | distinctly higher bioavailability
